In the NIST ThermoML archive (doi:10.1021/je900210h):
“And” between values parts separate entries of the source, which are not always exact repeats. Identical values can stand only once.

Details: Fluid (supercritical or subcritical phases), Coaxial cylinder method

FCC(F)(F)F [1,1,1,2-tetrafluoroethane]
Details	thermal conductivity
375.76 K, 4223 kPa	0.0752 W/m/K
375.77 K, 4161 kPa	0.0731 W/m/K
375.79 K, 4241 kPa	0.0673 W/m/K
375.8 K, 3504 kPa	0.029 W/m/K
375.8 K, 4150 kPa	0.0656 W/m/K
375.81 K, 3534 kPa	0.0279 W/m/K
375.82 K, 4254 kPa	0.0627 W/m/K
375.83 K, 4141 kPa	0.06 W/m/K
375.84 K, 4279 kPa	0.0589 W/m/K
375.85 K, 4296 kPa	0.0573 W/m/K
375.86 K, 4316 kPa	0.0558 W/m/K
375.86 K, 4334 kPa	0.0551 W/m/K
375.87 K, 3165 kPa	0.0261 W/m/K
375.87 K, 3264 kPa	0.0264 W/m/K
375.87 K, 4132 kPa	0.0548 W/m/K
375.87 K, 4349 kPa	0.0546 W/m/K
375.87 K, 4363 kPa	0.0539 W/m/K
375.88 K, 4387 kPa	0.0535 W/m/K
375.88 K, 4432 kPa	0.0526 W/m/K
375.88 K, 4461 kPa	0.0526 W/m/K and 0.0524 W/m/K
375.89 K, 4451 kPa	0.0521 W/m/K
375.89 K, 4630 kPa	0.052 W/m/K
375.9 K, 2970 kPa	0.0251 W/m/K
375.92 K, 4120 kPa	0.0485 W/m/K
375.93 K, 2700 kPa	0.0265 W/m/K
375.94 K, 2662 kPa	0.024 W/m/K
375.95 K, 2429 kPa	0.0235 W/m/K
375.95 K, 3993 kPa	0.0374 W/m/K
375.99 K, 3936 kPa	0.0349 W/m/K
375.99 K, 4072 kPa	0.0417 W/m/K
376.01 K, 3908 kPa	0.034 W/m/K
376.02 K, 4205 kPa	0.0817 W/m/K
376.02 K, 4207 kPa	0.0822 W/m/K
376.02 K, 4209 kPa	0.0826 W/m/K
376.02 K, 4213 kPa	0.0826 W/m/K
376.02 K, 4217 kPa	0.0821 W/m/K
376.03 K, 4203 kPa	0.0807 W/m/K
376.03 K, 4222 kPa	0.0806 W/m/K
376.03 K, 4225 kPa	0.0797 W/m/K
376.04 K, 1048 kPa	0.0214 W/m/K
376.04 K, 4039 kPa	0.0379 W/m/K
376.04 K, 4200 kPa	0.0784 W/m/K
376.04 K, 4230 kPa	0.0774 W/m/K
376.04 K, 4233 kPa	0.0766 W/m/K
376.05 K, 773 kPa	0.0212 W/m/K
376.05 K, 4198 kPa	0.0754 W/m/K
376.06 K, 524 kPa	0.0208 W/m/K
376.06 K, 4011 kPa	0.0362 W/m/K
376.06 K, 4242 kPa	0.0737 W/m/K
376.07 K, 200 kPa	0.0205 W/m/K
376.07 K, 4190 kPa	0.0693 W/m/K
376.07 K, 4250 kPa	0.0708 W/m/K
376.08 K, 3975 kPa	0.0352 W/m/K
376.08 K, 4260 kPa	0.0686 W/m/K
376.09 K, 4270 kPa	0.0669 W/m/K
376.09 K, 4280 kPa	0.0656 W/m/K
376.1 K, 3941 kPa	0.0342 W/m/K
376.1 K, 4180 kPa	0.0622 W/m/K
376.1 K, 4300 kPa	0.0638 W/m/K
376.11 K, 3913 kPa	0.0333 W/m/K
376.11 K, 4320 kPa	0.0624 W/m/K
376.14 K, 5520 kPa	0.054 W/m/K
376.14 K, 5651 kPa	0.0543 W/m/K
376.14 K, 5740 kPa	0.0545 W/m/K
376.15 K, 4789 kPa	0.0527 W/m/K
376.15 K, 5037 kPa	0.0529 W/m/K
376.15 K, 5092 kPa	0.0531 W/m/K
376.15 K, 5216 kPa	0.0534 W/m/K
376.15 K, 5296 kPa	0.0536 W/m/K
376.16 K, 4754 kPa	0.0523 W/m/K
376.19 K, 4160 kPa	0.0503 W/m/K
376.21 K, 3800 kPa	0.0312 W/m/K
376.21 K, 4150 kPa	0.048 W/m/K
376.23 K, 2350 kPa	0.0256 W/m/K
376.23 K, 3734 kPa	0.0301 W/m/K
376.26 K, 4264 kPa	0.081 W/m/K
376.26 K, 4360 kPa	0.0608 W/m/K
376.26 K, 4390 kPa	0.06 W/m/K
376.27 K, 4230 kPa	0.0811 W/m/K
376.28 K, 4218 kPa	0.0789 W/m/K
376.28 K, 4267 kPa	0.0803 W/m/K
376.29 K, 4214 kPa	0.078 W/m/K
376.29 K, 4279 kPa	0.0786 W/m/K
376.31 K, 4210 kPa	0.077 W/m/K
376.33 K, 3030 kPa	0.0242 W/m/K
376.34 K, 4199 kPa	0.074 W/m/K
376.34 K, 4305 kPa	0.0746 W/m/K
376.38 K, 2200 kPa	0.0252 W/m/K
376.38 K, 4192 kPa	0.0712 W/m/K
376.4 K, 3872 kPa	0.0323 W/m/K
376.41 K, 3872 kPa	0.0317 W/m/K
376.41 K, 4184 kPa	0.0684 W/m/K
376.42 K, 3872 kPa	0.0315 W/m/K
376.44 K, 3783 kPa	0.0303 W/m/K
376.44 K, 4178 kPa	0.0661 W/m/K
376.44 K, 4354 kPa	0.0663 W/m/K
376.46 K, 3783 kPa	0.0297 W/m/K
376.48 K, 3675 kPa	0.0288 W/m/K
376.48 K, 4174 kPa	0.0639 W/m/K
376.5 K, 3593 kPa	0.0281 W/m/K
376.51 K, 2527 kPa	0.0229 W/m/K
376.51 K, 3504 kPa	0.0275 W/m/K
376.51 K, 4168 kPa	0.0618 W/m/K
376.52 K, 4404 kPa	0.0612 W/m/K
376.53 K, 3468 kPa	0.0269 W/m/K
376.54 K, 4470 kPa	0.059 W/m/K
376.54 K, 4580 kPa	0.0586 W/m/K
376.55 K, 3302 kPa	0.0263 W/m/K
376.55 K, 4165 kPa	0.0598 W/m/K
376.56 K, 3210 kPa	0.0257 W/m/K
376.57 K, 4451 kPa	0.0587 W/m/K
376.58 K, 4158 kPa	0.0579 W/m/K
376.59 K, 3210 kPa	0.0248 W/m/K
376.6 K, 3210 kPa	0.0246 W/m/K
376.61 K, 3210 kPa	0.0244 W/m/K
376.61 K, 4150 kPa	0.0562 W/m/K
376.65 K, 4147 kPa	0.0545 W/m/K
376.68 K, 4141 kPa	0.0524 W/m/K
376.68 K, 4680 kPa	0.0583 W/m/K
376.69 K, 4140 kPa	0.0427 W/m/K
376.73 K, 4100 kPa	0.0395 W/m/K
376.78 K, 4040 kPa	0.0364 W/m/K
376.81 K, 3990 kPa	0.0346 W/m/K
376.82 K, 4117 kPa	0.047 W/m/K
376.82 K, 4820 kPa	0.0577 W/m/K
376.82 K, 4860 kPa	0.0575 W/m/K
376.87 K, 3880 kPa	0.0318 W/m/K
376.87 K, 4101 kPa	0.0452 W/m/K
376.87 K, 4504 kPa	0.0571 W/m/K
376.89 K, 4548 kPa	0.0562 W/m/K
376.9 K, 3800 kPa	0.0304 W/m/K
376.92 K, 3740 kPa	0.0295 W/m/K
376.95 K, 3650 kPa	0.0285 W/m/K
376.96 K, 2027 kPa	0.0218 W/m/K
376.98 K, 3510 kPa	0.0274 W/m/K
377.01 K, 4289 kPa	0.072 W/m/K
377.01 K, 4294 kPa	0.0724 W/m/K
377.01 K, 4307 kPa	0.0724 W/m/K
377.01 K, 4309 kPa	0.072 W/m/K
377.01 K, 4312 kPa	0.0717 W/m/K
377.02 K, 4322 kPa	0.0706 W/m/K
377.02 K, 4332 kPa	0.0691 W/m/K
377.03 K, 4343 kPa	0.0674 W/m/K
377.04 K, 4356 kPa	0.0661 W/m/K
377.05 K, 4380 kPa	0.0636 W/m/K
377.05 K, 4384 kPa	0.0634 W/m/K
377.06 K, 4397 kPa	0.0625 W/m/K
377.06 K, 4417 kPa	0.0617 W/m/K
377.07 K, 4439 kPa	0.0606 W/m/K
377.07 K, 4473 kPa	0.06 W/m/K
377.08 K, 4495 kPa	0.0595 W/m/K
377.08 K, 4538 kPa	0.0587 W/m/K
377.17 K, 4275 kPa	0.0671 W/m/K
377.18 K, 4270 kPa	0.0648 W/m/K
377.19 K, 4266 kPa	0.063 W/m/K
377.24 K, 4249 kPa	0.0555 W/m/K
377.26 K, 4241 kPa	0.0529 W/m/K
377.27 K, 4235 kPa	0.0513 W/m/K
377.29 K, 4226 kPa	0.0494 W/m/K
377.32 K, 4211 kPa	0.0466 W/m/K
377.36 K, 4613 kPa	0.0583 W/m/K
377.36 K, 4653 kPa	0.0578 W/m/K
377.36 K, 4697 kPa	0.0578 W/m/K
377.36 K, 4760 kPa	0.0576 W/m/K
377.37 K, 4836 kPa	0.0569 W/m/K
377.37 K, 4907 kPa	0.0562 W/m/K
377.51 K, 4164 kPa	0.0415 W/m/K
377.55 K, 4126 kPa	0.039 W/m/K
377.58 K, 4079 kPa	0.0366 W/m/K
377.73 K, 4701 kPa	0.055 W/m/K
377.83 K, 4369 kPa	0.0678 W/m/K
377.83 K, 4381 kPa	0.0681 W/m/K
377.83 K, 4390 kPa	0.0681 W/m/K
377.83 K, 4400 kPa	0.0678 W/m/K
377.84 K, 4360 kPa	0.0668 W/m/K
377.84 K, 4411 kPa	0.0668 W/m/K
377.84 K, 4420 kPa	0.0658 W/m/K
377.85 K, 4351 kPa	0.0652 W/m/K
377.85 K, 4432 kPa	0.0652 W/m/K
377.85 K, 4441 kPa	0.064 W/m/K
377.86 K, 4451 kPa	0.0631 W/m/K
377.86 K, 4460 kPa	0.0623 W/m/K
377.86 K, 4997 kPa	0.0548 W/m/K
